Assay results from patent publication US11226337B2, “Chemoproteomic profiling of protein electrophilic and oxidative post-translational modifications” (Zenagem, LLC, priority 2017, dated 2022).

What was measured:
[1] = biological target: T1, GLB1 Betagalactosidase (P16278) (Homo sapiens, UniProt P16278); experiment: SILAC RP-ABPP; assay type: cell-based; conditions: SILAC H/L
T1 construct: shared by both the endogenous and recombinant forms of these proteins; endogenous in cells; host or cells: HEK293T and MDA-MB-231
T1 sequence (P16278 29-677): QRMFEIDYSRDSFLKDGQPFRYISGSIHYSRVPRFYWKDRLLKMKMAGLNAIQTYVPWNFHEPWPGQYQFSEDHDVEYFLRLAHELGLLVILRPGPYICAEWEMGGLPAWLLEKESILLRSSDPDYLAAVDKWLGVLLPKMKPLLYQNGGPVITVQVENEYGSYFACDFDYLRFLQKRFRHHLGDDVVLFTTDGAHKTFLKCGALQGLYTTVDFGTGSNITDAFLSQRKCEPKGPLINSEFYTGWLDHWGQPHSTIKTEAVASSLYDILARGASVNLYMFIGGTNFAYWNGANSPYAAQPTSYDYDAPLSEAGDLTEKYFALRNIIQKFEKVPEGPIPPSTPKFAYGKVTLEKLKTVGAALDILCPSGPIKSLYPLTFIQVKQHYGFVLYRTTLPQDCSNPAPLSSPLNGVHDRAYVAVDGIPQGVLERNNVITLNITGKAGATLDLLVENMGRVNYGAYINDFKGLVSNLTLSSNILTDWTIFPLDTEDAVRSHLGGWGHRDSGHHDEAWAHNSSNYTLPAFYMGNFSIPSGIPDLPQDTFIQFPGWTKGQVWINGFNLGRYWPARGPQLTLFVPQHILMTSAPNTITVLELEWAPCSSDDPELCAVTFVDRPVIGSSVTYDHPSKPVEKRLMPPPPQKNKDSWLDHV

[2] = biological target: T2, SCPEP1 Retinoidinducible serine (Q9HB40) (Homo sapiens, UniProt Q9HB40); experiment: SILAC RP-ABPP; assay type: cell-based; conditions: SILAC H/L
T2 construct: In Situ Labelling of Cells with Hydrazine Probes for MS Experiments; endogenous in cells; host or cells: HEK293T and MDA-MB-231
T2 sequence (Q9HB40 27-452): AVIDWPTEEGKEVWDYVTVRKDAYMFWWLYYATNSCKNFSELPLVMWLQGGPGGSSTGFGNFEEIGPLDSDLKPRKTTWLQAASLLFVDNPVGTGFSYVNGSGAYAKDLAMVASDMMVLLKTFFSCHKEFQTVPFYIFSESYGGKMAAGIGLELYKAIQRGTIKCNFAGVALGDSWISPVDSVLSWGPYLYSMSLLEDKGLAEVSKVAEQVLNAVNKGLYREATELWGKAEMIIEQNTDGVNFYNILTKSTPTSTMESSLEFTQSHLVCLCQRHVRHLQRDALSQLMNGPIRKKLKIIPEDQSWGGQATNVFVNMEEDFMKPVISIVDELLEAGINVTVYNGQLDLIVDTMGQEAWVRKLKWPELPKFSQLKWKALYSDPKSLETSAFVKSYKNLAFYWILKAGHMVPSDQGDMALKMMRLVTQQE

[3] = probe 1 3 mM 0.5 h vs probe 3, HEK293T
[4] = probe 1 vs probe 1+10x probe 3, HEK293T
[5] = probe 2 1 mM 0.5 h vs probe 4, MDA-MB-231
[6] = probe 2 vs probe 2+10x probe 4, MDA-MB-231

Row | SMILES | enrichment ratioavg [1, 3] | competition ratioavg [1, 4] | enrichment ratioavg [2, 3] | competition ratioavg [2, 4] | enrichment ratioavg [1, 5] | competition ratioavg [1, 6] | enrichment ratioavg [2, 5] | competition ratioavg [2, 6]
1 | C#CCNN.Cl [probe 1, prop-2-yn-1-ylhydrazine hydrochloride] | 12 | 3 | 5 | 2 |  |  |  | 
2 | C#CCCNC(=O)c1ccc(NN)cc1.Cl [probe 2, N-(but-3-yn-1-yl)-4-hydrazinylbenzamide hydrochloride] |  |  |  |  | 6 | 2 | 19 | 4
